# Source: patent US12071404B2, “Aza (indole)-, benzothiophene-, and benzofuran-3-sulfonamides” (UCB Pharma GmbH, priority 2016, dated 2024)
# How the values were obtained:
# [1] = molecular target: T1, GPR17 (Homo sapiens, UniProt Q13304); experiment: cAMP accumulation functional assay (HTRF, Schild analysis); format: cell-based; set-up: host or cells: Flp-In T-REx CHO; details: CHO hGPR17 cells, Schild analysis vs MDL29,951, 5 μM forskolin, read-out: cAMP assay pA2 (converted)
# Summary of the method: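 CHO Flp-In T-REx cells with doxycycline-induced human GPR17 were preincubated 30 min at room temperature in HBSS-HEPES pH 7.4 with antagonist. cAMP was then measured by HTRF after 60 min. MDL29,951 pEC50 shifts gave dose ratios, and Schild analysis gave pA2.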
# [2] = molecular target: T1, GPR17; experiment: Calcium mobilization functional assay (GPR17 Ca2+ assay); format: cell-based; set-up: host or cells: Flp-In T-REx CHO; details: CHO hGPR17 cells, inhibition of 50 nM MDL29,951, Calcium 5 dye, FLIPR; read-out: Ca2+ assay pIC50 (converted)
# Summary of the method: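 Flp-In T-REx CHO cells stably expressing human GPR17, doxycycline-induced (1 μg/mL, 16-20 h), loaded 60 min with Calcium 5 dye. Inhibition by varying test-compound concentrations of the 50 nM MDL29,951 agonist response was read by fluorescence over time at room temperature. pIC50 came from 4-parameter logistic fitting.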
# T1 sequence (Q13304 whole entry): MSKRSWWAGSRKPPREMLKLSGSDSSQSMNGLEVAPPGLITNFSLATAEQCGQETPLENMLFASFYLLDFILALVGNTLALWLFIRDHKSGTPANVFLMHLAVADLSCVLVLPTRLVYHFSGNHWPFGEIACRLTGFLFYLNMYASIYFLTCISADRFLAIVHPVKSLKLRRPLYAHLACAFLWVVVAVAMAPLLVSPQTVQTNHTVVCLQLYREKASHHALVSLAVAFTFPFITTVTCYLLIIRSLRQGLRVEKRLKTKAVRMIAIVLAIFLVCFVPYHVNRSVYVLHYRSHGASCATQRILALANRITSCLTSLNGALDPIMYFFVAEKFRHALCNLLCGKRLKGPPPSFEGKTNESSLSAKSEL
Kb [1] [nM],IC50 [2] [nM],Compound
3.16 to 31.6,3.16 to 31.6,"COc1nc(NS(=O)(=O)c2csc3cc(Cl)ccc23)c(F)cc1Cl [Compound I-314, 6-chloro-N-(5-chloro-3-fluoro-6-methoxypyridin-2-yl)-1-benzothiophene-3-sulfonamide]"
3.16 to 31.6,3.16 to 31.6,"COc1cc(C(F)(F)F)cnc1NS(=O)(=O)c1c[nH]c2cc(Cl)ccc12 [Compound I-344, 6-chloro-N-[3-methoxy-5-(trifluoromethyl)pyridin-2-yl]-1H-indole-3-sulfonamide]"
< 3.16,3.16 to 31.6,"O=S(=O)(Nc1ccc(Cl)cc1F)c1c[nH]c2nc(Br)ccc12 [Compound I-278, 6-bromo-N-(4-chloro-2-fluorophenyl)-1H-pyrrolo[2,3-b]pyridine-3-sulfonamide]"
< 3.16,< 3.16,"COc1nc(NS(=O)(=O)c2c[nH]c3cc(Cl)ccc23)c(F)cc1Cl [Compound I-254, 6-chloro-N-(5-chloro-3-fluoro-6-methoxypyridin-2-yl)-1H-indole-3-sulfonamide]"
3.16 to 31.6,3.16 to 31.6,"CCOC(=O)C1CC1c1cc(F)c(NS(=O)(=O)c2c[nH]c3cc(Cl)ccc23)nc1F (centres unmarked) [Compound I-359, ethyl 2-(6-{[(6-chloro-1H-indol-3-yl)sulfonyl]amino}-2,5-difluoropyridin-3-yl)cyclopropanecarboxylate]"
3.16 to 31.6,3.16 to 31.6,"COc1ccc2c(S(=O)(=O)Nc3cc(F)c(Cl)cc3F)c[nH]c2c1 [Compound I-221, N-(4-chloro-2,5-difluorophenyl)-6-methoxy-1H-indole-3-sulfonamide]"
< 3.16,3.16 to 31.6,"O=S(=O)(Nc1cc(F)c(Br)cc1F)c1coc2cc(Cl)ccc12 [Compound I-259, N-(4-bromo-2,5-difluorophenyl)-6-chloro-1-benzofuran-3-sulfonamide]"
3.16 to 31.6,3.16 to 31.6,"N#Cc1ccc(NS(=O)(=O)c2c[nH]c3cc(-c4cccnc4)ccc23)c(F)c1 [Compound I-229, N-(4-cyano-2-fluorophenyl)-6-(pyridin-3-yl)-1H-indole-3-sulfonamide]"
3.16 to 31.6,3.16 to 31.6,"O=S(=O)(Nc1ccc(I)cn1)c1c[nH]c2cc(Cl)ccc12 [Compound I-280, 6-chloro-N-(5-iodopyridin-2-yl)-1H-indole-3-sulfonamide]"
3.16 to 31.6,3.16 to 31.6,"N#Cc1ccc(NS(=O)(=O)c2c[nH]c3cc(OCC(F)(F)F)ccc23)c(F)c1 [Compound I-294, N-(4-cyano-2-fluorophenyl)-6-(2,2,2-trifluoroethoxy)-1H-indole-3-sulfonamide]"
3.16 to 31.6,< 3.16,"COc1ccc2c(S(=O)(=O)Nc3cc(F)c(C#N)cc3OC)c[nH]c2c1 [Compound I-288, N-(4-cyano-5-fluoro-2-methoxyphenyl)-6-methoxy-1H-indole-3-sulfonamide]"
3.16 to 31.6,3.16 to 31.6,"O=S(=O)(Nc1cc(F)c(OC(F)F)cc1F)c1c[nH]c2nc(C(F)F)ccc12 [Compound I-363, N-[4-(difluoromethoxy)-2,5-difluorophenyl]-6-(difluoromethyl)-1H-pyrrolo[2,3-b]pyridine-3-sulfonamide]"
3.16 to 31.6,3.16 to 31.6,"N#Cc1ccc(NS(=O)(=O)c2c[nH]c3cc(-c4ccsc4)ccc23)c(F)c1 [Compound I-230, N-(4-cyano-2-fluorophenyl)-6-(thiophen-3-yl)-1H-indole-3-sulfonamide]"
3.16 to 31.6,3.16 to 31.6,"COc1nc(NS(=O)(=O)c2c[nH]c3c(Cl)c(F)ccc23)c(F)cc1Cl [Compound I-357, 7-chloro-N-(5-chloro-3-fluoro-6-methoxypyridin-2-yl)-6-fluoro-1H-indole-3-sulfonamide]"
< 3.16,3.16 to 31.6,"O=S(=O)(Nc1cc(F)c(Cl)cc1F)c1c[nH]c2nc(C(F)(F)F)ccc12 [Compound I-247, N-(4-chloro-2,5-difluorophenyl)-6-(trifluoromethyl)-1H-pyrrolo[2,3-b]pyridine-3-sulfonamide]"
3.16 to 31.6,3.16 to 31.6,"CS(=O)(=O)c1c(Cl)ccc2c(S(=O)(=O)Nc3cc(F)c(Cl)cc3F)c[nH]c12 [Compound I-261, 6-chloro-N-(4-chloro-2,5-difluorophenyl)-7-(methylsulfonyl)-1H-indole-3-sulfonamide]"
< 3.16,3.16 to 31.6,"N#Cc1ccc(NS(=O)(=O)c2c[nH]c3cc(-c4cccs4)ccc23)c(F)c1 [Compound I-235, N-(4-cyano-2-fluorophenyl)-6-(thiophen-2-yl)-1H-indole-3-sulfonamide]"
3.16 to 31.6,3.16 to 31.6,"COc1nc(NS(=O)(=O)c2c[nH]c3cc(N)ccc23)c(F)cc1CC#N [Compound I-352, 6-amino-N-[5-(cyanomethyl)-3-fluoro-6-methoxypyridin-2-yl]-1H-indole-3-sulfonamide]"

# Second part, the compound before the results:
Compound,Kb [1] [nM],IC50 [2] [nM]
"N#Cc1cc(F)c(NS(=O)(=O)c2c[nH]c3cc(Cl)ccc23)c(F)c1 [Compound I-182, 6-chloro-N-(4-cyano-2,6-difluorophenyl)-1H-indole-3-sulfonamide]",3.16 to 31.6,< 3.16
"O=S(=O)(Nc1cccc(F)c1Cl)c1c[nH]c2nc(Br)ccc12 [Compound I-83, 6-bromo-N-(2-chloro-3-fluoorphenyl)-1H-pyrrolo[2,3-b]pyridine-3-sulfonamide]",3.16 to 31.6,3.16 to 31.6
"O=S(=O)(Nc1cccc2c1OCO2)c1c[nH]c2cc(Cl)ccc12 [Compound I-25, N-(1,3-benzodioxol-4-yl)-6-chloro-1H-indole-3-sulfonamide]",3.16 to 31.6,< 3.16
"O=S(=O)(Nc1cccc2c1OC(F)(F)O2)c1c[nH]c2nc(Cl)ccc12 [Compound I-100, 6-chloro-N-(2,2-difluoro-1,3-benzodioxol-4-yl)-1H-pyrrolo[2,3-b]pyridine-3-sulfonamide]",3.16 to 31.6,> 31.6
"O=S(=O)(Nc1cccc2nsnc12)c1c[nH]c2ncc(I)cc12 [Compound I-98, N-(2,1,3-benzothiadiazol-4-yl)-5-iodo-1H-pyrrolo[2,3-b]pyridine-3-sulfonamide]",3.16 to 31.6,3.16 to 31.6
"C#Cc1ccc(NS(=O)(=O)c2c[nH]c3cc(Cl)ccc23)c(F)c1 [Compound I-210, 6-chloro-N-(4-ethynyl-2-fluorophenyl)-1H-indole-3-sulfonamide]",< 3.16,3.16 to 31.6
"O=S(=O)(Nc1nc(F)ccc1F)c1c[nH]c2cc(Cl)ccc12 [Compound I-200, 6-chloro-N-(3,6-difluoropyridin-2-yl)-1H-indole-3-sulfonamide]",3.16 to 31.6,3.16 to 31.6
"O=S(=O)(Nc1cccc2nsnc12)c1c[nH]c2cc(C(F)(F)F)ccc12 [Compound I-186, N-(2,1,3-benzothiadiazol-4-yl)-6-(trifluoromethyl)-1H-indole-3-sulfonamide]",3.16 to 31.6,3.16 to 31.6
"Cc1ccc2c(S(=O)(=O)Nc3ccc(Br)cc3F)c[nH]c2c1 [Compound I-173, N-(4-bromo-2-fluorophenyl)-6-methyl-1H-indole-3-sulfonamide]",3.16 to 31.6,3.16 to 31.6
"O=S(=O)(Nc1cc(F)ccc1F)c1c[nH]c2nc(Br)ccc12 [Compound I-88, 6-bromo-N-(2,5-difluorophenyl)-1H-pyrrolo[2,3-b]pyridine-3-sulfonamide]",3.16 to 31.6,3.16 to 31.6
"Cc1ccc2c(S(=O)(=O)Nc3ccc(Cl)cc3F)c[nH]c2c1 [Compound I-174, N-(4-chloro-2-fluorophenyl)-6-methyl-1H-indole-3-sulfonamide]",3.16 to 31.6,3.16 to 31.6
"O=S(=O)(Nc1cccc2c1OCO2)c1c[nH]c2nc(Br)ccc12 [Compound I-97, N-(1,3-benzodioxol-4-yl)-6-bromo-1H-pyrrolo[2,3-b]pyridine-3-sulfonamide]",3.16 to 31.6,3.16 to 31.6
"O=S(=O)(Nc1ccc(I)cc1F)c1c[nH]c2cc(Cl)ccc12 [Compound I-140, 6-chloro-N-(2-fluoro-4-iodophenyl)-1H-indole-3-sulfonamide]",< 3.16,< 3.16
"O=S(=O)(Nc1cccc2nsnc12)c1c[nH]c2c1ccc1ccccc12 [Compound I-155, N-(2,1,3-benzothiadiazol-4-yl)-1H-benzo[g]indole-3-sulfonamide]",< 3.16,3.16 to 31.6
"O=S(=O)(Nc1cc(F)c(F)cc1F)c1c[nH]c2c1ccc1cccnc12 [Compound I-67, N-(2,4,5-trifluorophenyl)-1H-pyrrolo[3,2-h]quinoline-3-sulfonamide]",3.16 to 31.6,3.16 to 31.6
"N#Cc1ccc(NS(=O)(=O)c2c[nH]c3cc(Cl)ccc23)cc1Cl [Compound I-181, 6-chloro-N-(3-chloro-4-cyanophenyl)-1H-indole-3-sulfonamide]",3.16 to 31.6,3.16 to 31.6
"N#Cc1ccc(NS(=O)(=O)c2c[nH]c3cc(Br)ccc23)cc1 [Compound I-134, 6-bromo-N-(4-cyanophenyl)-1H-indole-3-sulfonamide]",< 3.16,< 3.16
"O=S(=O)(Nc1nc(F)c(Cl)cc1F)c1c[nH]c2cc(Cl)ccc12 [Compound I-199, 6-chloro-N-(5-chloro-3,6-difluoropyridin-2-yl)-1H-indole-3-sulfonamide]",< 3.16,3.16 to 31.6
"O=S(=O)(Nc1cccc2nonc12)c1c[nH]c2c1ccc1cccnc12 [Compound I-119, N-(2,1,3-benzoxadiazol-4-yl)-1H-pyrrolo[3,2-h]quinoline-3-sulfonamide]",3.16 to 31.6,3.16 to 31.6
